Here are results for 8 molecules from the supplement of paper PMC10627819.

The subject of assay [1] is B. subtilis 168. Nature of the assay: Bliss interaction score (quartile over a dose matrix) (fitness difference); higher = more antagonism (negative = synergy). In short, it runs like this: (§1)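 The Bliss score is observed minus expected fitness, where expected fitness is the product of the single-drug fitness values inferred from the combination data. Fitness is the OD595 at the onset of stationary phase over the plate's robust no-drug mean, capped at 1. Scores are summarised by quartiles over technical, biological and donor/recipient replicates.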

The test system of a further assay is S. aureus Newman. The description is as above. In short, it runs like this:
as §1

The test system of a further assay is S. pneumoniae D39V. The description is as above. A digest of the protocol:
as §1

A further assay concerns S. aureus DSM 20231. The description is as above. In short, it runs like this:
as §1

Assay [2] relates to B. subtilis 168. Nature of the assay: fitness (endpoint OD595 vs no drug) (fraction); higher = more growth. The conditions noted are these: main component drawn. In short, it runs like this: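 At 37 °C, bacteria in TSB, LB Lennox or CY were grown in 384-well plates from a starting OD595 of 0.01. OD595 was measured every 30 min for 14 h, with the first reading used as background. Fitness is the optical density at the switch to stationary phase as a fraction of the robust mean of no-drug control wells, capped at 1.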
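For Bliss interaction score (quartile over a dose matrix) in this document: first quartile when negative (synergy) and third quartile when positive (antagonism).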
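For fitness (endpoint OD595 vs no drug) in this document: OD595 on entry to stationary phase over no-drug wells; at most 1.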

Turning to `CC[C@H](C)[C@H](N)C1=N[C@H](C(=O)N[C@@H](CC(C)C)C(=O)N[C@H](CCC(=O)O)C(=O)N[C@H](C(=O)N[C@H]2CCCCNC(=O)[C@H](CC(N)=O)NC(=O)[C@@H](CC(=O)O)NC(=O)[C@H](Cc3cnc[nH]3)NC(=O)[C@@H](Cc3ccccc3)NC(=O)[C@H]([C@@H](C)CC)NC(=O)[C@@H](CCCN)NC2=O)[C@@H](C)CC)CS1` [Bacitracin] + CC(=O)NC[C@H]1CN(c2ccc(N3CCOCC3)c(F)c2)C(=O)O1 [Linezolid], the Bliss interaction score was -0.0832 with B. subtilis 168 [1] (main component drawn), -0.087 in the assay on S. aureus Newman (main component drawn), -0.0719 in the assay on S. pneumoniae D39V (main component drawn) and -0.0504 in the assay with S. aureus DSM 20231 (main component drawn). Besides, the fitness in the assay on B. subtilis 168 [2] (first compound 37.5 µg/mL, partner 0.0625 µg/mL, one replicate) turned out to be 0.823; in the assay on B. subtilis 168 [2] (first compound 37.5 µg/mL, partner 0.125 µg/mL), 0.609; in the assay on B. subtilis 168 [2] (first compound 37.5 µg/mL, partner 0.5 µg/mL), 0.0502; with B. subtilis 168 [2] (first compound 75 µg/mL, partner 0.0625 µg/mL, one replicate) it was 0.749; in the assay on B. subtilis 168 [2] (first compound 75 µg/mL, partner 0.25 µg/mL), 0.13; with B. subtilis 168 [2] (first compound 75 µg/mL, partner 0.5 µg/mL), 0.0304. For the same molecule, the fitness with B. subtilis 168 [2] (first compound 150 µg/mL, partner 0.0625 µg/mL, one replicate) was found to be 0.3; in the assay with B. subtilis 168 [2] (first compound 150 µg/mL, partner 0.25 µg/mL) it was 0.0363; in the assay with B. subtilis 168 [2] (first compound 150 µg/mL, partner 0.5 µg/mL), 0.0221.
`CN[C@H](CC(C)C)C(=O)N[C@H]1C(=O)N[C@@H](CC(N)=O)C(=O)N[C@H]2C(=O)N[C@H]3C(=O)N[C@H](C(=O)N[C@H](C(=O)O)c4cc(O)cc(O)c4-c4cc3ccc4O)[C@H](O[C@H]3C[C@](C)(N)[C@@H](O)[C@H](C)O3)c3ccc(c(Cl)c3)Oc3cc2cc(c3O[C@@H]2O[C@H](CO)[C@@H](O)[C@H](O)[C@H]2O[C@H]2C[C@](C)(NCc3ccc(-c4ccc(Cl)cc4)cc3)[C@@H](O)[C@H](C)O2)Oc2ccc(cc2Cl)[C@H]1O` [Oritavancin] + COc1cc(Cc2cnc(N)nc2N)cc(OC)c1OC [Trimethoprim]: the Bliss interaction score in the assay on B. subtilis 168 [1] was 0.0391; in the assay on S. aureus Newman, -0.111; in the assay on S. pneumoniae D39V it was 0.078; in the assay on S. aureus DSM 20231 it was -0.0406.
As for `CN[C@H](CC(C)C)C(=O)N[C@H]1C(=O)N[C@@H](CC(N)=O)C(=O)N[C@H]2C(=O)N[C@H]3C(=O)N[C@H](C(=O)N[C@H](C(=O)O)c4cc(O)cc(O)c4-c4cc3ccc4O)[C@H](O[C@H]3C[C@](C)(N)[C@@H](O)[C@H](C)O3)c3ccc(c(Cl)c3)Oc3cc2cc(c3O[C@@H]2O[C@H](CO)[C@@H](O)[C@H](O)[C@H]2O[C@H]2C[C@](C)(NCc3ccc(-c4ccc(Cl)cc4)cc3)[C@@H](O)[C@H](C)O2)Oc2ccc(cc2Cl)[C@H]1O` [Oritavancin] + COc1ccc(C[C@H](N)C(=O)N[C@H]2[C@@H](O)[C@H](n3cnc4c(N(C)C)ncnc43)O[C@@H]2CO)cc1 [Puromycin], the Bliss interaction score in the assay with B. subtilis 168 [1] is 0.0232; in the assay with S. aureus Newman, -0.0754; in the assay on S. pneumoniae D39V, 0.0762; with S. aureus DSM 20231, -0.0699.
For `CN[C@H](CC(C)C)C(=O)N[C@H]1C(=O)N[C@@H](CC(N)=O)C(=O)N[C@H]2C(=O)N[C@H]3C(=O)N[C@H](C(=O)N[C@H](C(=O)O)c4cc(O)cc(O)c4-c4cc3ccc4O)[C@H](O[C@H]3C[C@](C)(N)[C@@H](O)[C@H](C)O3)c3ccc(c(Cl)c3)Oc3cc2cc(c3O[C@@H]2O[C@H](CO)[C@@H](O)[C@H](O)[C@H]2O[C@H]2C[C@](C)(NCc3ccc(-c4ccc(Cl)cc4)cc3)[C@@H](O)[C@H](C)O2)Oc2ccc(cc2Cl)[C@H]1O` [Oritavancin] + C[n+]1ccc(-c2cc[n+](C)cc2)cc1 [Paraquat], the Bliss interaction score in the assay with B. subtilis 168 [1] was -0.0221; in the assay on S. aureus Newman, -0.065; with S. pneumoniae D39V it was -0.044; in the assay with S. aureus DSM 20231 it was -0.0738.
`CN[C@H](CC(C)C)C(=O)N[C@H]1C(=O)N[C@@H](CC(N)=O)C(=O)N[C@H]2C(=O)N[C@H]3C(=O)N[C@H](C(=O)N[C@H](C(=O)O)c4cc(O)cc(O)c4-c4cc3ccc4O)[C@H](O[C@H]3C[C@](C)(N)[C@@H](O)[C@H](C)O3)c3ccc(c(Cl)c3)Oc3cc2cc(c3O[C@@H]2O[C@H](CO)[C@@H](O)[C@H](O)[C@H]2O[C@H]2C[C@](C)(NCc3ccc(-c4ccc(Cl)cc4)cc3)[C@@H](O)[C@H](C)O2)Oc2ccc(cc2Cl)[C@H]1O` [Oritavancin] + Cc1cc(NS(=O)(=O)c2ccc(N)cc2)no1 [Sulfamethoxazol]: the Bliss interaction score with B. subtilis 168 [1] was -0.0377; in the assay with S. aureus Newman it was 0.0801; in the assay on S. pneumoniae D39V, -0.0491; with S. aureus DSM 20231 it was -0.0575.
On the same counts, the results for `CN[C@H](CC(C)C)C(=O)N[C@H]1C(=O)N[C@@H](CC(N)=O)C(=O)N[C@H]2C(=O)N[C@H]3C(=O)N[C@H](C(=O)N[C@H](C(=O)O)c4cc(O)cc(O)c4-c4cc3ccc4O)[C@H](O[C@H]3C[C@](C)(N)[C@@H](O)[C@H](C)O3)c3ccc(c(Cl)c3)Oc3cc2cc(c3O[C@@H]2O[C@H](CO)[C@@H](O)[C@H](O)[C@H]2O[C@H]2C[C@](C)(NCc3ccc(-c4ccc(Cl)cc4)cc3)[C@@H](O)[C@H](C)O2)Oc2ccc(cc2Cl)[C@H]1O` [Oritavancin] + Cc1onc(-c2ccccc2)c1C(=O)N[C@@H]1C(=O)N2[C@@H]1SC(C)(C)[C@@H]2C(=O)O [Oxacillin] are 0.0256, -0.0656, -0.167 and -0.0461.
`CN[C@H](CC(C)C)C(=O)N[C@H]1C(=O)N[C@@H](CC(N)=O)C(=O)N[C@H]2C(=O)N[C@H]3C(=O)N[C@H](C(=O)N[C@H](C(=O)O)c4cc(O)cc(O)c4-c4cc3ccc4O)[C@H](O[C@H]3C[C@](C)(N)[C@@H](O)[C@H](C)O3)c3ccc(c(Cl)c3)Oc3cc2cc(c3O[C@@H]2O[C@H](CO)[C@@H](O)[C@H](O)[C@H]2O[C@H]2C[C@](C)(NCc3ccc(-c4ccc(Cl)cc4)cc3)[C@@H](O)[C@H](C)O2)Oc2ccc(cc2Cl)[C@H]1O` [Oritavancin] + Cn1nnc(-c2ccc(-c3ccc(N4C[C@H](CO)OC4=O)cc3F)cn2)n1 [Tedizolid]: the Bliss interaction score is -0.0251 with B. subtilis 168 [1], -0.0895 with S. aureus Newman, -0.0205 in the assay on S. pneumoniae D39V and -0.0541 in the assay on S. aureus DSM 20231.
`CN[C@H](CC(C)C)C(=O)N[C@H]1C(=O)N[C@@H](CC(N)=O)C(=O)N[C@H]2C(=O)N[C@H]3C(=O)N[C@H](C(=O)N[C@H](C(=O)O)c4cc(O)cc(O)c4-c4cc3ccc4O)[C@H](O[C@H]3C[C@](C)(N)[C@@H](O)[C@H](C)O3)c3ccc(c(Cl)c3)Oc3cc2cc(c3O[C@@H]2O[C@H](CO)[C@@H](O)[C@H](O)[C@H]2O[C@H]2C[C@](C)(NCc3ccc(-c4ccc(Cl)cc4)cc3)[C@@H](O)[C@H](C)O2)Oc2ccc(cc2Cl)[C@H]1O` [Oritavancin] + Oc1cc(Cl)ccc1Oc1ccc(Cl)cc1Cl [Triclosan]: the Bliss interaction score was 0.0201 with B. subtilis 168 [1], -0.0473 with S. aureus Newman, 0.102 with S. pneumoniae D39V and 0.108 with S. aureus DSM 20231.
